# Measured values reported in patent publication US20220324835A1 (Nurix Therapeutics, Inc., priority 2018, published 2022).
# pIC50, pKd: −log10 of the molar value.
# Assays:
# [1] = target: T1, Cbl-b (Homo sapiens, UniProt Q13191); experiment: Cbl-b inhibition assay (Cbl-b activity assay, FRET, Biological Example 1; 100 mM NaCl, 60 nM Src kinase); assay type: biochemical; conditions: upper bound stated in text lists; read-out: IC50 values in the Cbl-b inhibition assay of Biological Example 1
# Outline: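 Binding-based Cbl-b activity assay. Src-phosphorylated, N-terminally biotin-Avi-tagged Cbl-b recruits labelled UbcH5B-Ub, and proximity to streptavidin-terbium yields FRET.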
# [2] = target: Cbl-b (residues 36-427) (Homo sapiens, UniProt Q13191); experiment: Cbl-b binding assay (SPR, Biacore T200); conditions: 20° C., 1:1 binding model
# Outline: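 Affinities derived from global 1:1 steady-state or kinetic fits of double-referenced, solvent-corrected SPR data, 20 °C, NeutrAvidin-capture chip. Compound series (top 100 or 50 μM, 8–10 points) injected 50 s, 90–180 s dissociation. Asterisked values used 50 mM instead of 100 mM NaCl and 30 nM Src kinase.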
# [3] = tested on: T-cell; experiment: IL-2 secretion from T-cells stimulated with anti-CD3 antibody alone (Biological Example 2); assay type: cell-based; conditions: primary human total T-cells, read-out: IL-2 secretion, Anti-CD3 stimulation, fold change over baseline; for fold induction at 1 µM: 1 μM compound; for fold induction at 8 µM: 8 μM compound
# [4] = tested on: T-cell; experiment: CD25 cell surface staining on T-cells co-stimulated with anti-CD3 and anti-CD28 antibody (Biological Example 2); assay type: cell-based, human; conditions: Homo sapiens, T-cell, primary human total T-cells, baseline = anti-CD3/anti-CD28 stimulated cells without inhibitor, read-out: CD25 staining, Anti-CD3/Anti-CD28 stimulation, fold change over baseline; for fold induction at 0.3 µM: 0.3 μM compound; for fold induction at 1 µM: 1 μM compound; for fold induction at 4 µM: 4 μM compound
# Outline: (§1)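 No assay protocol given; T-cells stimulated with anti-CD3 alone or anti-CD3 plus anti-CD28, with or without Cbl-b inhibitor. Activation read as IL-2 secretion or CD25 surface staining, expressed as fold over baseline from uninhibited cells […].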
# [5] = tested on: T-cell; experiment: IL-2 secretion from T-cells co-stimulated with anti-CD3 and anti-CD28 antibody (Biological Example 2); assay type: cell-based, human; conditions: Homo sapiens, T-cell, primary human total T-cells, baseline = anti-CD3/anti-CD28 stimulated cells without inhibitor, read-out: IL-2 secretion, Anti-CD3/Anti-CD28 stimulation, fold change over baseline; for fold induction at 0.3 µM: 0.3 μM compound; for fold induction at 1 µM: 1 μM compound; for fold induction at 4 µM: 4 μM compound
# Outline: as §1
# [6] = tested on: T-cell; experiment: CD25 cell surface staining on T-cells stimulated with anti-CD3 antibody alone (Biological Example 2); assay type: cell-based; conditions: primary human total T-cells, baseline = anti-CD3/anti-CD28 stimulated cells without inhibitor, read-out: CD25 staining, Anti-CD3 stimulation, fold change over baseline; for fold induction at 1 µM: 1 μM compound; for fold induction at 8 µM: 8 μM compound
# [7] = target: T1, Cbl-b; experiment: Cbl-b activity assay (Cbl-b inhibition assay), TR-FRET of Cbl-b interaction with UbcH5B-Ub; assay type: biochemical; conditions: assay buffer with 100 mM NaCl, 60 nM Src kinase; read-out: Cbl-b activity IC50
# Outline: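 TR-FRET readout of Cbl-b binding to Bodipy-fluorescein N-terminally labeled Ub conjugated to UbcH5B C85K, measured with compound present. After compound incubation, 60 nM Src kinase with 1 mM ATP and 5 mM MgCl2 (final) was added for 1.5 h, then a further 1 h incubation; asterisked values used 50 mM NaCl buffer and 30 nM Src.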
# Cbl-b (residues 36-427), sequence (Q13191 36-427): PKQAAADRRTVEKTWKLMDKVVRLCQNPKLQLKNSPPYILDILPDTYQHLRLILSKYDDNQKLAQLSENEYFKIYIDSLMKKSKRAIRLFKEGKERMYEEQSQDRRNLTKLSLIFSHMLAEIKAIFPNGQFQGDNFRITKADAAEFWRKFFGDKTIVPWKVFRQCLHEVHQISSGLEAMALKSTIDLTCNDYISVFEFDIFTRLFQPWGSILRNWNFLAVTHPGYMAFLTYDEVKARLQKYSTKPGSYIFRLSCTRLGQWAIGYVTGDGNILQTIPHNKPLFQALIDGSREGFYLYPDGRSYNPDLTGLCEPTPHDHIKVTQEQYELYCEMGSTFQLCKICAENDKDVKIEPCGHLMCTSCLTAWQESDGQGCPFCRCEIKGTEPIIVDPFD
# T1 sequence (Q13191 36-427): as above
Compound,pIC50 [1],pKd [2],fold induction at 1 µM [3],fold induction at 8 µM [3],fold induction at 0.3 µM [4],fold induction at 1 µM [4],fold induction at 4 µM [4],fold induction at 0.3 µM [5],fold induction at 1 µM [5],fold induction at 4 µM [5],fold induction at 1 µM [6],fold induction at 8 µM [6],pIC50 [7]
"Cn1cnnc1[C@H](F)C(C)(F)c1cccc(N2Cc3c(cccc3C(F)(F)F)C2=O)c1 (stereo in doubt) [Compound 479, 2-(3-((1S,2S)-1,2-difluoro-1-(4-methyl-4H-1,2,4-triazol-3-yl)propan-2-yl)phenyl)-4-(trifluoromethyl)isoindolin-1-one]",≥ 7.00,6.52 to 7.00,< 0.05,0.101 to 0.15,1.01 to 1.3,1.01 to 1.3,1.01 to 1.3,1.01 to 2.5,1.01 to 2.5,1.01 to 2.5,0.601 to 0.8,0.801 to 1,> 7.00
"Cn1cnnc1CC1(c2cccc(NC(=O)c3cc(Cn4ccnn4)nc(C4CC4)n3)c2)COC1 [Compound 506, 2-cyclopropyl-N-(3-{3-[(4-methyl-1,2,4-triazol-3-yl)methyl]oxetan-3-yl}phenyl)-6-(1,2,3-triazol-1-ylmethyl)pyrimidine-4-carboxamide]",≥ 7.00,> 7.00,0.101 to 0.15,,1.01 to 1.3,1.31 to 1.5,,1.01 to 2.5,2.51 to 5,,0.801 to 1,,> 7.00
"Cc1conc1C[C@@H](C)c1cccc(N2Cc3c(cccc3C(F)(F)F)C2=O)c1 [Compound 367a, (R)-2-(3-(1-(4-Methylisoxazol-3-yl)propan-2-yl)phenyl)-4-(trifluoromethyl)isoindolin-1-one]",≥ 6.52,5.52 to 6.00,0.051 to 0.1,0.151 to 0.2,1.01 to 1.3,< 1,1.01 to 1.3,< 1,< 1,1.01 to 2.5,0.601 to 0.8,0.801 to 1,6.52 to 7.00
"Cn1cnnc1CC1(c2cccc(N3Cc4c(cc(CN5CC[C@H](F)C5)cc4C4CC4)C3=O)c2)COC1 [Example 554, (S)-4-cyclopropyl-6-((3-fluoropyrrolidin-1-yl)methyl)-2-(3-(3-((4-methyl-4H-1,2,4-triazol-3-yl)methyl)oxetan-3-yl)phenyl)isoindolin-1-one]",≥ 7.00,> 7.00,0.151 to 0.2,,1.31 to 1.5,1.31 to 1.5,,> 7.5,> 7.5,,> 1,,> 7.00
"C[C@H](Cc1nncn1C)c1cccc(N2Cc3c(cc(N[C@H]4CCNC4)cc3C(F)(F)F)C2=O)c1 [Compound 379, 2-(3-((R)-1-(4-methyl-4H-1,2,4-triazol-3-yl)propan-2-yl)phenyl)-6-(((S)-pyrrolidin-3-yl)amino)-4-(trifluoromethyl)isoindolin-1-one]",≥ 7.00,> 7.00,0.101 to 0.15,0.151 to 0.2,1.01 to 1.3,1.01 to 1.3,1.01 to 1.3,1.01 to 2.5,2.51 to 5,2.51 to 5,0.801 to 1,> 1,> 7.00
"Cc1[nH]ncc1-c1cc2c(c(C(F)(F)F)c1)CN(c1cccc([C@H](C)Cc3nncn3C)c1)C2=O [Compound 381, 6-(5-methyl-1H-pyrazol-4-yl)-2-{3-[(2R)-1-(4-methyl-4H-1,2,4-triazol-3-yl)propan-2-yl]phenyl}-4-(trifluoromethyl)-2,3-dihydro-1H-isoindol-1-one]",≥ 7.00,> 7.00,0.151 to 0.2,> 0.201,1.31 to 1.5,1.51 to 1.75,1.51 to 1.75,2.51 to 5,5 to 7.5,> 7.5,0.801 to 1,> 1,> 7.00
"C[C@H](Cc1nncn1C)c1cccc(N2Cc3c(cc(CN4CC[C@@H](F)C4)cc3C(F)(F)F)C2=O)c1 [Compound 400, 6-(((R)-3-fluoropyrrolidin-1-yl)methyl)-2-(3-((R)-1-(4-methyl-4H-1,2,4-triazol-3-yl)propan-2-yl)phenyl)-4-(trifluoromethyl)isoindolin-1-one]",≥ 7.00,> 7.00,> 0.201,> 0.201,1.01 to 1.3,1.01 to 1.3,1.31 to 1.5,5 to 7.5,> 7.5,> 7.5,> 1,> 1,> 7.00
"Cn1cnnc1CC1(c2cccc(N3Cc4c(cc(CN5CCC(F)(F)C5)cc4C(F)(F)F)C3=O)c2)COC1 [Compound 411, 6-((3,3-difluoropyrrolidin-1-yl)methyl)-2-(3-(3-((4-methyl-4H-1,2,4-triazol-3-yl)methyl)oxetan-3-yl)phenyl)-4-(trifluoromethyl)isoindolin-1-one]",≥ 7.00,> 7.00,> 0.201,> 0.201,1.01 to 1.3,1.01 to 1.3,1.01 to 1.3,2.51 to 5,> 7.5,> 7.5,> 1,> 1,> 7.00
"C[C@H](O)CNc1cc([C@H](C)Cc2nncn2C)cc(N2Cc3c(cccc3C(F)(F)F)C2=O)n1 [Compound 364, 2-(6-((S)-2-hydroxypropylamino)-4-((R)-1-(4-methyl-4H-1,2,4-triazol-3-yl)propan-2-yl)pyridin-2-yl)-4-(trifluoromethyl)isoindolin-1-one]",,5.52 to 6.00,0.051 to 0.1,0.101 to 0.15,1.01 to 1.3,1.01 to 1.3,1.01 to 1.3,1.01 to 2.5,1.01 to 2.5,1.01 to 2.5,0.601 to 0.8,0.601 to 0.8,6.00 to 6.52
"Cn1cnnc1[C@H](F)[C@](C)(F)c1cccc(N2Cc3c(cc(C4CC4)cc3C(F)(F)F)C2=O)c1 [Compound 481a, 6-cyclopropyl-2-[3-[(1S,2R)-1,2-difluoro-1-(4-methyl-4H-1,2,4-triazol-3-yl)propan-2-yl]phenyl]-4-(trifluoromethyl)-2,3-dihydro-1H-isoindol-1-one]",,6.52 to 7.00,0.051 to 0.1,0.101 to 0.15,1.01 to 1.3,1.01 to 1.3,1.01 to 1.3,< 1,1.01 to 2.5,2.51 to 5,0.801 to 1,> 1,6.52 to 7.00
